In one assay the test system is A-431. Nature of the assay: Concentration needed to inhibit 50% growth of the human A431 (epidermoid carcinoma) cell lines. Type of assay: functional, cell-based.
Another assay concerns SW-620. Kind of assay: Concentration needed to inhibit 50% growth of human SW620 (colon carcinoma) cell lines. Type of assay: functional, cell-based.
The subject of the next assay is SK-BR-3. Nature of the assay: Concentration needed to inhibit 50% growth of human SKBr3 (breast carcinoma) cell lines. Type of assay: functional, cell-based.
Assay [1] has as its target Epidermal growth factor receptor and ErbB2 (HER1 and HER2) (Homo sapiens, UniProt P04626+P00533). Nature of the assay: Concentration needed to inhibit the autophosphorylation of the cytoplasmic domain of Epidermal growth factor receptor using DELFIA/time-resolved fluorimetry. It counts as protein assay.

By IC50 is commonly meant the midpoint of a concentration-inhibition curve. Read a high IC50 as a need for much substance. In the case of `CCOc1cc2ncc(C#N)c(Nc3cccc(Br)c3)c2cc1OCC`, the IC50 with A-431 came out at 0.11 µM; in the assay with SW-620, 0.16 µM; in the assay with SK-BR-3, 0.09 µM; in assay [1], 0.42 µM.

Regarding `COc1cc2c(C#N)cnc(Nc3cccc(Cl)c3)c2cc1OC`, the IC50 in the assay with A-431 amounted to 26.1 µM; with SW-620 it was 64.5 µM; in the assay with SK-BR-3 it was 27.7 µM; in assay [1], 88.29 µM.

Take `COc1cc2ncc(C=O)c(Nc3cccc(Br)c3)c2cc1OC`: the 50% inhibitory concentration (IC50) with A-431 was found to be 1.95 µM; with SW-620 it was 5.24 µM; in the assay with SK-BR-3, 2.97 µM; in assay [1], 3.37 µM.

Turning to `COc1cc2ncc(C#N)c(Nc3ccc(C)c(Cl)c3)c2cc1OC`, the concentration for half-maximal inhibition (IC50) was found to be 0.93 µM with A-431, 25 µM in the assay with SW-620, 0.94 µM in the assay on SK-BR-3 and 1.48 µM in assay [1].

For `COc1cc2ncc(C#N)c(Nc3cccc(Cl)c3)c2cc1OC`, the IC50 with A-431 stood at 0.59 µM; in the assay on SW-620, 7.06 µM; in the assay on SK-BR-3, 1.76 µM; in assay [1], 0.18 µM.

On to `COc1cc2ncc(C#N)c(Nc3ccccc3Br)c2cc1OC`, for which the IC50 in the assay with A-431 was 21 µM; in the assay with SW-620, 17 µM; in the assay on SK-BR-3, 0.8 µM; in assay [1], 4.18 µM.

In the case of `COc1cc2ncc(C#N)c(Nc3cccc(C(C)C)c3)c2cc1OC`, the IC50 with A-431 was 4.35 µM; in the assay with SW-620, 3.8 µM; in the assay with SK-BR-3, 6.74 µM; in assay [1], 62.32 µM.

For `COc1cc2ncc(C#N)c(Nc3cccc(N)c3)c2cc1OC`, the IC50 was 6.62 µM in the assay with A-431, 14.3 µM with SW-620, 2.45 µM in the assay with SK-BR-3 and 0.82 µM in assay [1].

Consider `COc1cc2ncc(C#N)c(Nc3ccc(Br)c(C)c3)c2cc1OC`, for which the IC50 in the assay on A-431 stood at 0.73 µM; with SW-620, 3.09 µM; with SK-BR-3, 1.38 µM; in assay [1], 0.62 µM.

Regarding `CCOc1cc2c(Nc3cccc(Br)c3)c(C#N)cnc2cc1OC`, the IC50 with A-431 worked out at 0.57 µM; in the assay with SW-620 it was 4.24 µM; in the assay with SK-BR-3, 0.64 µM; in assay [1], 21.19 µM.

In the case of `COc1cc2ncc(C#N)c(Nc3cccc(O)c3)c2cc1OC`, the IC50 turned out to be 1.52 µM in the assay on A-431, 7.8 µM with SW-620, 0.95 µM in the assay with SK-BR-3 and 6.36 µM in assay [1].

As for `COc1cc2ncc(C#N)c(Nc3ccc(O)c(Cl)c3)c2cc1OC`, the IC50 in the assay on A-431 was 3.01 µM; in the assay on SW-620, 2.75 µM; in the assay with SK-BR-3 it was 1.29 µM; in assay [1], 9.04 µM.

Take `COc1cc2ncc(C#N)c(Nc3cccc(C#N)c3)c2cc1OC`: the IC50 with A-431 was found to be 3.51 µM; in the assay on SW-620 it was 43.3 µM; in the assay with SK-BR-3 it was 26 µM; in assay [1], 14.18 µM.

Regarding `COc1cc2ncc(C#N)c(Nc3cccc(Br)c3)c2cc1OC`, the IC50 in the assay with A-431 amounted to 0.78 µM; with SW-620 it was 3.72 µM; in the assay with SK-BR-3 it was 0.48 µM.

Regarding `COCOc1cc2ncc(C#N)c(Nc3cccc(Br)c3)c2cc1OCOC`, the IC50 came to 14.5 µM with A-431, 9.79 µM in the assay with SW-620, 14.2 µM in the assay on SK-BR-3 and 6.75 µM in assay [1].

Turning to `COc1cc2ncc(C#N)c(Nc3ccc(C)c(Br)c3)c2cc1OC`, the IC50 came to 0.75 µM in the assay on A-431, 2.89 µM in the assay on SW-620, 0.55 µM in the assay with SK-BR-3 and 1.79 µM in assay [1].

In the case of `N#Cc1cnc2cc3c(cc2c1Nc1cccc(Br)c1)OCCO3`, the IC50 was 0.42 µM in the assay on A-431, 0.43 µM in the assay with SW-620, 0.27 µM in the assay on SK-BR-3 and > 104.7 µM in assay [1].

Turning to `CCOc1cc2ncc(C#N)c(Nc3cccc(Br)c3)c2cc1OC`, the IC50 in the assay on A-431 is 0.14 µM; with SW-620, 0.06 µM; with SK-BR-3, 0.06 µM; in assay [1], 33.02 µM.

Consider `COc1cc2ncc(C#N)c(Nc3ccc(Cl)cc3F)c2cc1OC`, for which the half-maximal inhibitory concentration (IC50) in the assay with A-431 turned out to be 0.818 µM; in the assay with SW-620, 5.34 µM; in the assay on SK-BR-3, 0.54 µM; in assay [1], 13.85 µM.

As to `COc1cc2ncc(C#N)c(Nc3cccc(Br)c3C)c2cc1OC`, the IC50 in the assay on A-431 worked out at 3.64 µM; with SW-620, 11.8 µM; in the assay with SK-BR-3 it was 0.39 µM; in assay [1] it was 0.84 µM.

`COc1cc2ncc(C#N)c(Nc3cccc(SC)c3)c2cc1OC.Cl`: the IC50 in the assay with A-431 amounted to 1.45 µM; in the assay on SW-620 it was 4.98 µM; in the assay with SK-BR-3 it was 1.54 µM; in assay [1], 0.76 µM.

In the case of `COc1cc2ncc(C#N)c(Nc3ccc(Br)cc3F)c2cc1OC.Cl`, the IC50 with A-431 is 0.89 µM; in the assay with SW-620, 19.2 µM; in the assay on SK-BR-3, 1.69 µM; in assay [1] it was > 91.2 µM.

Regarding `COc1cc2ncc(C#N)c(Nc3cccc(C(N)=O)c3)c2cc1OC`, the IC50 in the assay with A-431 turned out to be 5.91 µM; with SW-620, 6.29 µM; with SK-BR-3, 8.44 µM; in assay [1], 7.69 µM.

For `CCOc1cc2ncc(C#N)c(Nc3ccc(F)c(Cl)c3)c2cc1OCC`, the IC50 in the assay on A-431 worked out at 0.27 µM; in the assay on SW-620, 0.49 µM; in the assay with SK-BR-3, 0.49 µM; in assay [1] it was 0.98 µM.

Take `COc1cc2ncc(C#N)c(Nc3cccc(NC(C)=O)c3)c2cc1OC`: the IC50 was 2.62 µM with A-431, 2.74 µM in the assay on SW-620, 1.55 µM in the assay with SK-BR-3 and 69.4 µM in assay [1].

Take `N#Cc1cnc2cc3c(cc2c1Nc1cccc(Br)c1)OCCCO3`: the IC50 is 2.08 µM with A-431, 2.9 µM with SW-620, 5.07 µM in the assay on SK-BR-3 and 5.15 µM in assay [1].

`COc1cc2ncc(C#N)c(Nc3cc(Cl)c(O)c(Cl)c3)c2cc1OC`: the IC50 in the assay on A-431 was 3.14 µM; in the assay with SW-620 it was 3.43 µM; in the assay on SK-BR-3, 2.02 µM; in assay [1], 3.15 µM.

Regarding `COc1cc2ncc(C#N)c(Nc3ccc(F)cc3)c2cc1OC`, the concentration for half-maximal inhibition (IC50) in the assay on A-431 came out at 1.43 µM; with SW-620, 2.87 µM; in the assay on SK-BR-3, 0.74 µM; in assay [1], 47.94 µM.

Take `COc1cc2ncc(CO)c(Nc3cccc(Br)c3)c2cc1OC`: the IC50 is 7.91 µM in the assay with A-431, 23.2 µM with SW-620, 15.4 µM in the assay with SK-BR-3 and > 102.2 µM in assay [1].

In the case of `CCOC(=O)c1cnc2cc(OC)c(OC)cc2c1Nc1cccc(Br)c1`, the IC50 with A-431 was 3.01 µM; with SW-620 it was 6.93 µM; in the assay on SK-BR-3, 6.21 µM; in assay [1], > 81.3 µM.

Regarding `COc1cc2ncc(C(=O)O)c(Nc3cccc(Br)c3)c2cc1OC`, the IC50 is 18.2 µM in the assay on A-431, 53.8 µM in the assay with SW-620, 35.7 µM in the assay on SK-BR-3 and 34.22 µM in assay [1].

These data come from ChEMBL document CHEMBL1133627, “4-Anilino-6,7-dialkoxyquinoline-3-carbonitrile inhibitors of epidermal growth factor receptor kinase and their bioisosteric relationship to the 4-anilino-6,7-dialkoxyquinazoline inhibitors” (J Med Chem, 2000).
